Laboratory results taken from US10508085B2, “Compounds and methods for IDO and TDO modulation, and indications therefor” (Plexxikon Inc., priority 2016, dated 2019).

How the values were obtained:
[1] = biological target: T1, Human Indoleamine 2,3-dioxygenase (IDO) (Homo sapiens, UniProt P14902); assay: Human IDO enzymatic assay (kynurenine level); format: biochemical; settings: 6 nM IDO, 10 μM L-Trp; geometric mean; read-out: IDO1 GMean: IC50 (μM) (Biochemical Assay)
T1 construct: His tag (N); made in house; host or cells: E. coli
T1 sequence (P14902 whole entry): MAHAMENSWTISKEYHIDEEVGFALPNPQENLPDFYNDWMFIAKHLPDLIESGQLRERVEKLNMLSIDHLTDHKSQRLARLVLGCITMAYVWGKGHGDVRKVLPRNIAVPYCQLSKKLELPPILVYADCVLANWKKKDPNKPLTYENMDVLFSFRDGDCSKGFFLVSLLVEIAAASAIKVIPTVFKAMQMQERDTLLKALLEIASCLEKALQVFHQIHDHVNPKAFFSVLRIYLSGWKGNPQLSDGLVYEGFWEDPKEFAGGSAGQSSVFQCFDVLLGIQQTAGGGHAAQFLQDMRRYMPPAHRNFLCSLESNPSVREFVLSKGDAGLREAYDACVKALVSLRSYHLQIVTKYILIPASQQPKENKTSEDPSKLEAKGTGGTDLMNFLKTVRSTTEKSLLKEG
In short: (§1)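 Kynurenine formed is measured after TCA quench and 50 °C hydrolysis, with % inhibition against full-reaction and no-enzyme controls (5% DMSO). IDO: 6 nM enzyme, 10 μM L-Trp, 5 μM methylene blue, 20 min; TDO: 1 nM, 350 μM L-Trp, 0.4 μM methylene blue, 70 min; both pH 6.5, room temp, E. coli-expressed His-tagged.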

[2] = biological target: T2, human TDO (TDO-expressing HEK293 cells) (Homo sapiens, UniProt P48775); assay: Cell based kynurenine assay, TDO-expressing HEK293 cell clones; settings: TDO-expressing HEK293 cells, 24 hours incubation; geometric mean; read-out: HEK293 TDO Kynurenine GMean IC50 (μM) (Cellular Assay)
T2 construct: expressed in transfected cells
T2 sequence (P48775 whole entry): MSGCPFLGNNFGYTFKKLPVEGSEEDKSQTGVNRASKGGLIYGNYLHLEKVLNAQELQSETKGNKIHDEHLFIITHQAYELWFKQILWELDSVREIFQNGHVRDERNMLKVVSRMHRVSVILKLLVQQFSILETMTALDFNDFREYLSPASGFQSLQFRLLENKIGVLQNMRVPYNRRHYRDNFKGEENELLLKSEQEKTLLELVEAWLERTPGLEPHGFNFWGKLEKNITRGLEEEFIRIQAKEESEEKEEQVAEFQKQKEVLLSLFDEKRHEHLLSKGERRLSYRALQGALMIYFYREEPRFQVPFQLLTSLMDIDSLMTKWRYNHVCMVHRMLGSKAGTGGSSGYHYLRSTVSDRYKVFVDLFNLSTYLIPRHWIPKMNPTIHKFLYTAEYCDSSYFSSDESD
In short: (§2)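 IC50 values come from nonlinear regression of kynurenine reduction in supernatants of human IDO1- or TDO-expressing HEK293 cells incubated 24 h with serially diluted compounds, normalised to cell and media-only controls containing 0.2% DMSO.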

[3] = biological target: T3, human IDO (IDO1-expressing HEK293 cells) (Homo sapiens, UniProt P14902); assay: Cell based kynurenine assay, IDO1-expressing HEK293 cell clones; settings: IDO1-expressing HEK293 cells, 24 hours incubation; geometric mean; read-out: HEK293 IDO1 Kynurenine GMean IC50 (μM) (Cellular Assay)
T3 construct: expressed in transfected cells
T3 sequence (P14902 whole entry): as the sequence (P14902 whole entry) above
In short: as §2

[4] = biological target: T4, Human Tryptophan 2,3-dioxygenase (TDO) (Homo sapiens, UniProt P48775); assay: Human TDO enzymatic assay (kynurenine level); format: biochemical; settings: 1 nM TDO, 350 μM L-Trp; geometric mean; read-out: TDO GMean: IC50 (μM) (Biochemical Assay)
T4 construct: His tag (N); made in house; host or cells: E. coli
T4 sequence (P48775 whole entry): as the sequence (P48775 whole entry) above
In short: as §1

| SMILES | IC50 [1] | IC50 [2] | IC50 [3] | IC50 [4] |
| --- | --- | --- | --- | --- |
| Cc1ccc(NC(=O)N2CCC(C(C)(C)C(O)c3cc(Cl)cc4cn[nH]c34)CC2)cc1Cl (stereo not shown) [Compound P-0394, 4-(1-(5-chloro-1H-indazol-7-yl)-1-hydroxy-2-methylpropan-2-yl)-N-(3-chloro-4-methylphenyl) piperidine-1-carboxamide] | 0.0001 to 10 µM | 0.0001 to 10 µM | 0.0001 to 10 µM | 0.0001 to 10 µM |
| CC(C)(C1CCN(C(=O)Nc2cc(Cl)cc(Cl)c2)CC1)C(O)c1cc(Cl)cc2cn[nH]c12 (stereo not shown) [Compound P-0395, 4-(1-(5-chloro-1H-indazol-7-yl)-1-hydroxy-2-methylpropan-2-yl)-N-(3,5-dichlorophenyl) piperidine-1-carboxamide] | 0.0001 to 10 µM | 0.0001 to 10 µM | 0.0001 to 10 µM | 0.0001 to 10 µM |
| COc1cc(NC(=O)N2CCC(C(C)(C)C(O)c3cc(Cl)cc4cn[nH]c34)CC2)cc(OC)c1 (stereo not shown) [Compound P-0396, 4-(1-(5-chloro-1H-indazol-7-yl)-1-hydroxy-2-methylpropan-2-yl)-N-(3,5-dimethoxyphenyl) piperidine-1-carboxamide] | 0.0001 to 10 µM | 0.0001 to 10 µM | 0.0001 to 10 µM | 0.0001 to 10 µM |
| Cc1ccc(NC(=O)N2CCC(C(C)(C)C(O)c3cc(Cl)cc4cn[nH]c34)CC2)cc1 (stereo not shown) [Compound P-0397, 4-(1-(5-chloro-1H-indazol-7-yl)-1-hydroxy-2-methylpropan-2-yl)-N-(p-tolyl) piperidine-1-carboxamide] | 0.0001 to 10 µM | 0.0001 to 10 µM | 0.0001 to 10 µM | 0.0001 to 10 µM |
| CC(C)(C1CCN(C(=O)Nc2ccc(F)cc2F)CC1)C(O)c1cc(Cl)cc2cn[nH]c12 (stereo not shown) [Compound P-0398, 4-(1-(5-chloro-1H-indazol-7-yl)-1-hydroxy-2-methylpropan-2-yl)-N-(2,4-difluorophenyl) piperidine-1-carboxamide] | 0.0001 to 10 µM | 0.0001 to 10 µM | 0.0001 to 10 µM | 0.0001 to 10 µM |
| CCNC(=O)N1CCC(C(C)(C)C(O)c2cc(Cl)cc3cn[nH]c23)CC1 (stereo not shown) [Compound P-0399, 4-(1-(5-chloro-1H-indazol-7-yl)-1-hydroxy-2-methylpropan-2-yl)-N-ethylpiperidine-1-carboxamide] | 0.0001 to 10 µM | 0.0001 to 10 µM | 0.0001 to 10 µM | 0.0001 to 10 µM |
| CC(C)(C1CCN(C(=O)Nc2cccc(C(F)(F)F)c2)CC1)C(O)c1cc(Cl)cc2cn[nH]c12 (stereo not shown) [Compound P-0400, 4-(1-(5-chloro-1H-indazol-7-yl)-1-hydroxy-2-methylpropan-2-yl)-N-(3-(trifluoromethyl)phenyl)piperidine-1-carboxamide] | 0.0001 to 10 µM | 0.0001 to 10 µM | 0.0001 to 10 µM | 0.0001 to 10 µM |
| CC(C)(C1CCN(C(=O)Nc2ccccc2C(F)(F)F)CC1)C(O)c1cc(Cl)cc2cn[nH]c12 (stereo not shown) [Compound P-0401, 4-(1-(5-chloro-1H-indazol-7-yl)-1-hydroxy-2-methylpropan-2-yl)-N-(2-(trifluoromethyl)phenyl)piperidine-1-carboxamide] | 0.0001 to 10 µM | 0.0001 to 10 µM | 0.0001 to 10 µM | 0.0001 to 10 µM |
| CN(C)c1ccc(NC(=O)N2CCC(C(C)(C)C(O)c3cc(Cl)cc4cn[nH]c34)CC2)cc1 (stereo not shown) [Compound P-0402, 4-(1-(5-chloro-1H-indazol-7-yl)-1-hydroxy-2-methylpropan-2-yl)-N-(4-(dimethylamino)phenyl)piperidine-1-carboxamide] | 0.0001 to 10 µM | 0.0001 to 10 µM | 0.0001 to 10 µM | 0.0001 to 10 µM |
| CC(C)(C1CCN(C(=O)Nc2ccc(OC(F)(F)F)cc2)CC1)C(O)c1cc(Cl)cc2cn[nH]c12 (stereo not shown) [Compound P-0403, 4-(1-(5-chloro-1H-indazol-7-yl)-1-hydroxy-2-methylpropan-2-yl)-N-(4-(trifluoromethoxy)phenyl)piperidine-1-carboxamide] | 0.0001 to 10 µM | 0.0001 to 10 µM | 0.0001 to 10 µM | 0.0001 to 10 µM |

The next lines start with the values.

| IC50 [1] | IC50 [2] | IC50 [3] | IC50 [4] | SMILES |
| --- | --- | --- | --- | --- |
| 0.0001 to 10 µM | 0.0001 to 10 µM | 0.0001 to 10 µM | 0.0001 to 10 µM | CC(C)(C1CCN(C(=O)NC(=O)c2ccccc2)CC1)C(O)c1cc(Cl)cc2cn[nH]c12 (stereo not shown) [Compound P-0385, N-benzoyl-4-(1-(5-chloro-1H-indazol-7-yl)-1-hydroxy-2-methylpropan-2-yl)piperidine-1-carboxamide] |
| 0.0001 to 10 µM | 0.0001 to 10 µM | 0.0001 to 10 µM | 0.0001 to 10 µM | CC(C)(C1CCN(C(=O)NCc2ccccc2)CC1)C(O)c1cc(Cl)cc2cn[nH]c12 (stereo not shown) [Compound P-0386, N-benzyl-4-(1-(5-chloro-1H-indazol-7-yl)-1-hydroxy-2-methylpropan-2-yl)piperidine-1-carboxamide] |
| 0.0001 to 10 µM | 0.0001 to 10 µM | 0.0001 to 10 µM | 0.0001 to 10 µM | CC(C)(C1CCN(C(=O)NC2CCC2)CC1)C(O)c1cc(Cl)cc2cn[nH]c12 (stereo not shown) [Compound P-0387, 4-(1-(5-chloro-1H-indazol-7-yl)-1-hydroxy-2-methylpropan-2-yl)-N-cyclobutylpiperidine-1-carboxamide] |
| 0.0001 to 10 µM | 0.0001 to 10 µM | 0.0001 to 10 µM | 0.0001 to 10 µM | COCCNC(=O)N1CCC(C(C)(C)C(O)c2cc(Cl)cc3cn[nH]c23)CC1 (stereo not shown) [Compound P-0388, 4-(1-(5-chloro-1H-indazol-7-yl)-1-hydroxy-2-methylpropan-2-yl)-N-(2-methoxyethyl) piperidine-1-carboxamide] |
| 0.0001 to 10 µM | 0.0001 to 10 µM | 0.0001 to 10 µM | 0.0001 to 10 µM | CC(C)(C1CCN(C(=O)Nc2ccccn2)CC1)C(O)c1cc(Cl)cc2cn[nH]c12 (stereo not shown) [Compound P-0389, 4-(1-(5-chloro-1H-indazol-7-yl)-1-hydroxy-2-methylpropan-2-yl)-N-(pyridin-2-yl)piperidine-1-carboxamide] |
| 0.0001 to 10 µM | 0.0001 to 10 µM | 0.0001 to 10 µM | 0.0001 to 10 µM | CC(C)(C1CCN(C(=O)Nc2ccnc(N3CCOCC3)c2)CC1)C(O)c1cc(Cl)cc2cn[nH]c12 (stereo not shown) [Compound P-0390, 4-(1-(5-chloro-1H-indazol-7-yl)-1-hydroxy-2-methylpropan-2-yl)-N-(2-morpholinopyridin-4-yl)piperidine-1-carboxamide] |
| 0.0001 to 10 µM | 0.0001 to 10 µM | 0.0001 to 10 µM | 0.0001 to 10 µM | CC(C)(C1CCN(C(=O)N2CCOCC2)CC1)C(O)c1cc(Cl)cc2cn[nH]c12 (stereo not shown) [Compound P-0391, (4-(1-(5-chloro-1H-indazol-7-yl)-1-hydroxy-2-methylpropan-2-yl)piperidin-1-yl)(morpholino) methanone] |
| 0.0001 to 10 µM | 0.0001 to 10 µM | 0.0001 to 10 µM | 0.0001 to 10 µM | Cc1noc(C)c1NC(=O)N1CCC(C(C)(C)C(O)c2cc(Cl)cc3cn[nH]c23)CC1 (stereo not shown) [Compound P-0392, 4-(1-(5-chloro-1H-indazol-7-yl)-1-hydroxy-2-methylpropan-2-yl)-N-(3,5-dimethylisoxazol-4-yl)piperidine-1-carboxamide] |
| 0.0001 to 10 µM | 0.0001 to 10 µM | 0.0001 to 10 µM | 0.0001 to 10 µM | CC(C)(C1CCN(C(=O)Nc2ccc(Cl)c(C(F)(F)F)c2)CC1)C(O)c1cc(Cl)cc2cn[nH]c12 (stereo not shown) [Compound P-0393, 4-(1-(5-chloro-1H-indazol-7-yl)-1-hydroxy-2-methylpropan-2-yl)-N-(4-chloro-3-(trifluoromethyl)phenyl)piperidine-1-carboxamide] |
